What follows are molecules tested against T1, HDAC2 Human recombinant C-terminal FLAG-tag (Homo sapiens, UniProt Q92769) (assay: Measurement of HDAC2 enzyme inhibitory activity (HTRF)). Details: recombinant HDAC2, H3K9ac peptide, 3 hours room temperature; read-out: HDAC2 IC50.
T1 construct: FLAG (C); purchased BPS Bioscience 50052
Type: biochemical
Experimental: Test Example 1: Measurement of HDAC2 Enzyme Inhibitory Activity
The HDAC2 enzyme inhibitory activity was measured by the method described in the following test example.
To each well of a 384-well plate (Corning, 4514), DMSO solution of the test compound was dispensed at 50 nL/well from a final concentration of 99 μM to 8 points (n=2) in the 3-fold dilution series using Echo555 (Beckman Coulter). 2.5 μl of 0.005 mg/mL recombinant enzyme HDAC2 (HDAC2 Human recombinant C-terminal FLAG-tag, BPS Bioscience, 50052) was added to each well, 2.5 μl of 0.6 μM H3K9ac peptide (Lys(Ac)9-Histone H3 (1-21)-GGK(Biotin), AnaSpec, 64361) was added, mixed, and reacted in a wet box at room temperature for 3 hours. 50 mM Tris HCL pH8.0, 137 mM sodium chloride, 2.7 mM potassium chloride, 1 mM magnesium chloride, 0.01% Tween20, and 0.1% BSA which were diluted with ultrapure water were used as a reaction buffer at this time. After the reaction, 5 μL of 10 μM SAHA (suberoylanilide hydroxamic acid) as a reaction terminator and the 5 μL of a mixture of 2.5 ng of H3K9me0 antibody (ActiveMotif, 61399) labeled in-house with europium cryptate (Cisbio, 65EUSABA) and 125 nM streptavidin-XL665 (Cisbio, 610SAXLA) as an HTRF (time-resolved fluorescence) reagent were added to each well, mixed, and allowed to stand in a wet box at room temperature for reaction. A detection buffer used at this time was 50 mM Tris HCL pH 8.0, 0.8 M potassium fluoride, and 0.1% BSA which were diluted with ultrapure water. After reacting for 2 hours or more, HTRF was measured using a multi-plate reader such as SpectraMax Paradigm (MOLECULAR DEVICE) or RUBYstar (BMG LABTECH). Ratio (665 nm/615-620 nm×10000) was calculated from the fluorescence values of two wavelengths, 615-620 nm and 665 nm, which were excited at 320-340 nm, and the energy transition was obtained.

T1 sequence (Q92769 whole entry): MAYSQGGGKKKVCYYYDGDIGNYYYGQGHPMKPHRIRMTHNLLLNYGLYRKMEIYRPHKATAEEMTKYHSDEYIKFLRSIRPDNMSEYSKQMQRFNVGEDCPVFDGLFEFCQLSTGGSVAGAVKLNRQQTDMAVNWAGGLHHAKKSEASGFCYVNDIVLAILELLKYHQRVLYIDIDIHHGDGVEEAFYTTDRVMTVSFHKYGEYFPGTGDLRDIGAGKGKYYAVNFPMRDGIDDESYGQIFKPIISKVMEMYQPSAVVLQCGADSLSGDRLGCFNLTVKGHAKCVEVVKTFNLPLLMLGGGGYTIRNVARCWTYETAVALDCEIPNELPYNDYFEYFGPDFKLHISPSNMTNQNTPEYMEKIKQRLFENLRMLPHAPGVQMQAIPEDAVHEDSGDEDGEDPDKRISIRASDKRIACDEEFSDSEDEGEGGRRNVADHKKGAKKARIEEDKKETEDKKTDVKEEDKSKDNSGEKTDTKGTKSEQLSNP

| SMILES | IC50 |
| --- | --- |
| Nc1ccc(-c2cncs2)cc1NC(=O)c1ccc2[nH]ccc2n1 [Compound I-081] | 280 nM |
| COC(=O)c1ccc(C(=O)Nc2cc(-c3ccc(F)nc3)ccc2N)nc1 [Compound I-185] | 140 nM |
| Nc1ccc(-c2cncs2)cc1NC(=O)c1cc2c(cn1)OC(F)(F)O2 [Compound I-074] | 270 nM |
| Cn1cc(-c2ccc(C(=O)Nc3cc(-c4ccco4)ccc3N)nc2)nn1 [Compound I-002] | 54 nM |
| CN(C)c1cnc(C(=O)Nc2nc(-n3cccc3)ccc2N)cn1 [Compound I-212] | 830 nM |
| Cn1cc(-c2ccc(C(=O)Nc3cc(-c4ccc(F)nc4)ccc3N)nc2)cn1 [Compound I-033] | 88 nM |
| Nc1ccc(-c2ccc(F)nc2)cc1NC(=O)c1cnc(N2Cc3cccnc3C2)cn1 [Compound I-279] | 50 nM |
| CN(C)c1cnc(C(=O)Nc2cc(-n3ccc(F)c3)ccc2N)cn1 [Compound I-299] | 120 nM |
| CC(=O)Nc1ccc(C(=O)Nc2cc(-c3cnn(C)c3)ccc2N)nc1 [Compound I-265] | 90 nM |
| Nc1ccc(-c2ccc(F)nc2)cc1NC(=O)c1cnc(CF)cn1 [Compound I-134] | 210 nM |
| COCCOc1ccc(C(=O)Nc2cc(-c3cnn(C)c3)ccc2N)nc1 [Compound I-180] | 210 nM |
| Cn1cc(-c2ccc(C(=O)Nc3cc(-c4ccco4)ccc3N)nc2)cn1 [Compound I-005] | 220 nM |
| Nc1ccc(-c2ccc(F)nc2)cc1NC(=O)c1cnc(N2CCCOCC2)cn1 [Compound I-278] | 50 nM |
| CN(C)c1ccc(C(=O)Nc2cc(-c3ccc(F)nc3)ccc2N)nn1 [Compound I-263] | 120 nM |
| CC(C)c1ccc(C(=O)Nc2cc(-c3cnn(C)c3)ccc2N)nc1 [Compound I-153] | 210 nM |
| N#Cc1ccnc(C(=O)Nc2cc(-c3cncs3)ccc2N)c1 [Compound I-109] | 190 nM |
| Cc1nnc(-c2ccc(C(=O)Nc3cc(-c4ccc(F)nc4)ccc3N)nc2)o1 [Compound I-133] | 110 nM |
| Cc1ccc(C(=O)Nc2cc(-c3cnn(C)c3)ccc2N)nn1 [Compound I-257] | 570 nM |
| CC(C)c1cnc(C(=O)Nc2cc(-c3ccc(F)nc3)ccc2N)cn1 [Compound I-251] | 110 nM |
| CC(=O)N(C)c1cnc(C(=O)Nc2cc(-c3ccc(F)nc3)ccc2N)cn1 [Compound I-248] | 220 nM |
| Cn1cc(-c2cnc(C(=O)Nc3cc(-n4cccc4)ccc3N)cn2)cn1 [Compound I-013] | 100 nM |
| Cn1cc(-c2cnc(C(=O)Nc3cc(-c4ccco4)ccc3N)cn2)cn1 [Compound I-008] | 120 nM |
| COCCOc1ccc(C(=O)Nc2nc(-n3cccc3)ccc2N)nc1 [Compound I-182] | 350 nM |
| Cn1cc(-c2ccc(C(=O)Nc3nc(-n4cccc4)ccc3N)nc2)cn1 [Compound I-025] | 370 nM |

| SMILES | IC50 |
| --- | --- |
| Nc1ccc(-c2ccc(F)nc2)cc1NC(=O)c1ccc(N2CCCC2)nn1 [Compound I-271] | 90 nM |
| Nc1ccc(-c2cncs2)cc1NC(=O)c1ccc2c(n1)CCCC2 [Compound I-082] | 340 nM |
| CN(C)c1ccc(C(=O)Nc2cc(-c3ccc(F)nc3)ccc2N)nc1 [Compound I-176] | 79 nM |
| Nc1ccc(-c2ccc(F)nc2)cc1NC(=O)c1ccc(F)cn1 [Compound I-089] | 400 nM |
| Nc1ccc(-c2ccc(F)nc2)cc1NC(=O)c1cc2ccncc2cn1 [Compound I-068] | 140 nM |
| Cn1cc(-c2cnc(C(=O)Nc3nc(-c4ccco4)ccc3N)cn2)cn1 [Compound I-026] | 320 nM |
| Nc1ccc(-n2cccc2)nc1NC(=O)c1ccc2c(n1)OCC(=O)N2 [Compound I-234] | 240 nM |
| CC(C)(O)C1CN(c2cnc(C(=O)Nc3cc(-c4ccc(F)nc4)ccc3N)cn2)C1 [Compound I-284] | 80 nM |
| Nc1ccc(-c2ccc(F)nc2)cc1NC(=O)c1cccnn1 [Compound I-115] | 440 nM |
| Cn1cc(-c2ccc(C(=O)Nc3cc(-c4cncs4)ccc3N)nc2)nn1 [Compound I-047] | 30 nM |
| Cn1cc(-c2ccc(N)c(NC(=O)c3cnc(NCC(F)(F)F)cn3)c2)cn1 [Compound I-292] | 170 nM |
| COCCOc1cnc(C(=O)Nc2nc(-c3ccccc3)ccc2N)cn1 [Compound I-231] | 850 nM |
| Cc1cnc(C(=O)Nc2cc(-c3cnn(C)c3)ccc2N)cn1 [Compound I-138] | 200 nM |
| N#Cc1ccc(C(=O)Nc2cc(-c3cncs3)ccc2N)nc1 [Compound I-069] | 160 nM |
| Nc1ccc(-c2cncs2)cc1NC(=O)c1ccc2nccn2n1 [Compound I-065] | 330 nM |
| Nc1ccc(-c2cncs2)cc1NC(=O)c1noc2ccccc12 [Compound I-195] | 290 nM |
| Nc1ccc(-c2ccc(F)nc2)cc1NC(=O)c1ccc(N2CCOCC2)nn1 [Compound I-262] | 100 nM |
| COC1CN(c2cnc(C(=O)Nc3cc(-c4ccc(F)nc4)ccc3N)cn2)C1 [Compound I-283] | 50 nM |
| CN(C)c1cnc(C(=O)Nc2nc(-c3cnn(C)c3)ccc2N)cn1 [Compound I-228] | 630 nM |
| Cn1cc(-c2ccc(N)c(NC(=O)c3ccc(C(C)(C)C)cn3)c2)cn1 [Compound I-201] | 260 nM |
| CN(C)c1cnc(C(=O)Nc2nc(-c3ccccc3)ccc2N)cn1 [Compound I-213] | 310 nM |
| Cc1ccc(C(=O)Nc2cc(-c3ccc(F)nc3)ccc2N)nc1 [Compound I-154] | 120 nM |
| Cn1cc(-c2ccc(N)c(NC(=O)c3ccc4c(n3)OCO4)c2)cn1 [Compound I-216] | 100 nM |
| COc1ccc(C(=O)Nc2cc(-c3cnn(C)c3)ccc2N)nc1 [Compound I-140] | 220 nM |

| SMILES | IC50 |
| --- | --- |
| Nc1ccc(-c2ccc(F)nc2)cc1NC(=O)c1cnc(NCC(F)(F)F)cn1 [Compound I-288] | 230 nM |
| Cn1cc(-c2ccc(C(=O)Nc3cc(-c4cncs4)ccc3N)nc2)nn1 [Compound I-046] | 54 nM |
| Nc1ccc(-c2ccc(F)nc2)cc1NC(=O)c1cc2c(cn1)OCCO2 [Compound I-097] | 160 nM |
| Cn1cc(-c2cc(C(=O)Nc3cc(-c4cncs4)ccc3N)no2)cn1 [Compound I-196] | 55 nM |
| Nc1ccc(-c2cncs2)cc1NC(=O)c1cc2ccccc2cn1 [Compound I-066] | 110 nM |
| CC(C)c1cnc(C(=O)Nc2cc(-c3cnn(C)c3)ccc2N)cn1 [Compound I-252] | 170 nM |
| CCc1ccc(C(=O)Nc2cc(-c3ccc(F)nc3)ccc2N)nc1 [Compound I-174] | 120 nM |
| COCCOc1cnc(C(=O)Nc2nc(-n3cccc3)ccc2N)cn1 [Compound I-232] | 320 nM |
| CN(C)c1cnc(C(=O)Nc2cc(-c3cnco3)ccc2N)cn1 [Compound I-202] | 60 nM |
| Nc1ccc(-c2cncs2)cc1NC(=O)c1cc2c(cn1)OC(F)(F)CO2 [Compound I-070] | 240 nM |
| Nc1ccc(-c2ccc(F)nc2)cc1NC(=O)c1cnc(N2CCCC2)cn1 [Compound I-240] | 80 nM |
| Nc1ccc(-c2cncs2)cc1NC(=O)c1ccc2c(n1)CCC2 [Compound I-083] | 160 nM |
| CCc1cnc(C(=O)Nc2cc(-c3ccc(F)nc3)ccc2N)cn1 [Compound I-249] | 70 nM |
| Cc1ccc(C(=O)Nc2cc(-c3ccc(F)nc3)ccc2N)nn1 [Compound I-256] | 260 nM |
| Cn1cc(-c2cnc(C(=O)Nc3cc(-c4cccs4)ccc3N)nc2)cn1 [Compound I-014] | 200 nM |
| CCN(C)c1cnc(C(=O)Nc2cc(-c3cnn(C)c3)ccc2N)cn1 [Compound I-237] | 160 nM |
| Nc1ccc(-c2ccc(F)nc2)cc1NC(=O)c1cnc(C(F)F)cn1 [Compound I-145] | 340 nM |
| Nc1ccc(-c2ccc(F)nc2)cc1NC(=O)c1cnc(-n2cncn2)cn1 [Compound I-128] | 180 nM |
| Cn1cc(-c2cnc(C(=O)Nc3cc(-c4cccs4)ccc3N)cn2)cn1 [Compound I-007] | 96 nM |
| C=Cc1ccc(C(=O)Nc2cc(-c3ccc(F)nc3)ccc2N)nc1 [Compound I-131] | 180 nM |
| Nc1ccc(-c2ccc(F)nc2)cc1NC(=O)c1cnc(N2CC3(CCO3)C2)cn1 [Compound I-235] | 60 nM |
| Nc1ccc(-c2ccc(F)nc2)cc1NC(=O)c1ccc(Cl)nn1 [Compound I-264] | 270 nM |
| Cc1cnc(C(=O)Nc2nc(-n3cccc3)ccc2N)cn1 [Compound I-171] | 430 nM |

Same assay, conditions: recombinant HDAC2, H3K9ac peptide; read-out: IC50 (HDAC2)

| SMILES | IC50 |
| --- | --- |
| CC(=O)Nc1cnc(C(=O)Nc2cc(-c3cnn(C)c3)ccc2N)cn1 [Compound I-309] | 120 nM |
| CC(=O)Nc1cnc(C(=O)Nc2cc(-c3ccc(F)nc3)ccc2N)cn1 [Compound I-310] | 92 nM |
| CCC(=O)Nc1ccc(C(=O)Nc2cc(-c3ccc(F)nc3)ccc2N)nc1 [Compound I-306] | 48 nM |
| CCNc1cnc(C(=O)Nc2cc(-c3cnn(C)c3)ccc2N)cn1 [Compound I-304] | 70 nM |
